Measurements taken from ChEMBL document CHEMBL1201862, “PubChem BioAssay data set” (2004).
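Five compound concentrations were applied to cells in 96-well plates for 48 hours; endpoints were derived by simple linear interpolation of the resulting dose-response curve. At the GI50, growth is halved.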 The source made the active and inactive calls. Rule as the data show it: active = GI50 up to about 1.1 µM and inactive = higher.

Columns and labels:
Assay in all cases: inhibition of tumour cell growth, NCI panel, 48 h
786-0 = tested on: 786-0
ACHN = tested on: ACHN
DU-145 = tested on: DU-145
EKVX = tested on: EKVX
HT-29 = tested on: HT-29
K562 = tested on: K562
KM12 = tested on: KM12
M14 = tested on: M14
MDA-N = tested on: MDA-N
NCI-H226 = tested on: NCI-H226
NCI-H460 = tested on: NCI-H460
NCI-H522 = tested on: NCI-H522
PC-3 = tested on: PC-3
RPMI-8226 = tested on: RPMI-8226
SF-295 = tested on: SF-295
SK-MEL-2 = tested on: SK-MEL-2
TK-10 = tested on: TK-10
UACC-62 = tested on: UACC-62
HOP-92 = tested on: HOP-92

Measured: GI50

CC(O)CC(O)(C(F)(F)F)C(F)(F)F (centres undefined)
inactive: 786-0 > 10 µM | ACHN > 10 µM | DU-145 > 10 µM | EKVX > 10 µM | HT-29 > 10 µM | K562 > 10 µM | KM12 > 10 µM | M14 > 10 µM | MDA-N > 10 µM | NCI-H226 > 10 µM | NCI-H460 > 10 µM | NCI-H522 > 10 µM | PC-3 > 10 µM | RPMI-8226 > 10 µM | SF-295 > 10 µM | SK-MEL-2 > 10 µM | TK-10 > 10 µM | UACC-62 > 10 µM

COC(=O)C(C(=O)C(=O)Nc1cccc(OC)c1)c1cnc2ccccc2n1 (centres undefined)
inactive: 786-0 > 100 µM | ACHN > 100 µM | EKVX > 100 µM | HOP-92 > 100 µM | HT-29 > 100 µM | K562 > 100 µM | KM12 > 100 µM | M14 > 100 µM | NCI-H226 > 100 µM | NCI-H460 > 100 µM | NCI-H522 > 100 µM | RPMI-8226 > 100 µM | SF-295 > 100 µM | SK-MEL-2 > 100 µM | TK-10 > 100 µM | UACC-62 > 100 µM

Nc1ccc(C(=O)NN2C(=O)C(Cl)C2c2cccc([N+](=O)[O-])c2)cc1 (centres undefined)
inactive: 786-0 18.7 µM | ACHN 20.1 µM | EKVX 28.2 µM | HOP-92 21.4 µM | HT-29 20.7 µM | K562 20.8 µM | KM12 16.2 µM | M14 23 µM | NCI-H226 20.2 µM | NCI-H460 59.7 µM | NCI-H522 12 µM | RPMI-8226 23.2 µM | SF-295 20.5 µM | SK-MEL-2 16.8 µM | TK-10 18.7 µM | UACC-62 21.1 µM

CN1CCN(C2=NCCO2)CC1
inactive: 786-0 > 100 µM | ACHN > 100 µM | DU-145 > 100 µM | EKVX > 100 µM | HT-29 > 100 µM | K562 > 100 µM | KM12 > 100 µM | M14 > 100 µM | MDA-N > 100 µM | NCI-H226 > 100 µM | NCI-H460 > 100 µM | NCI-H522 > 100 µM | PC-3 > 100 µM | RPMI-8226 > 100 µM | SF-295 > 100 µM | SK-MEL-2 > 100 µM | TK-10 > 100 µM | UACC-62 > 100 µM

CC1=NN(c2ccccc2)C(=O)C1=C1SCCCS1
inactive: 786-0 35.5 µM | ACHN > 100 µM | EKVX 30.1 µM | HOP-92 25.5 µM | HT-29 32 µM | K562 21.1 µM | KM12 21.9 µM | M14 49.4 µM | NCI-H226 29.3 µM | NCI-H460 35.2 µM | NCI-H522 18.1 µM | RPMI-8226 19.7 µM | SF-295 27.2 µM | SK-MEL-2 56 µM | TK-10 23.8 µM | UACC-62 17.3 µM
